Reference: the NIST ThermoML archive (doi:10.1021/je4005323)

Details: Liquid; for speed of sound: Pulse-echo method; for mass density: Vibrating tube method

CCCCCCCC/C=C\CCCCCCCC(=O)OC [methyl cis-9-octadecenoate]
Details | mass density [kg/m3] | speed of sound [m/s]
283.15 K, 101.3 kPa | – | 1443.2
283.15 K, 10000 kPa | – | 1486.1
283.15 K, 20000 kPa | – | 1526.5
283.15 K, 30000 kPa | – | 1564.5
283.15 K, 40000 kPa | – | 1600.5
283.15 K, 50000 kPa | – | 1634.5
283.15 K, 60000 kPa | – | 1668.6
283.15 K, 70000 kPa | – | 1701
283.15 K, 80000 kPa | – | 1732.7
283.15 K, 90000 kPa | – | 1762.7
283.15 K, 100000 kPa | – | 1790.8
283.15 K, 110000 kPa | – | 1819.3
283.15 K, 120000 kPa | – | 1846
283.15 K, 130000 kPa | – | 1872.5
283.15 K, 140000 kPa | – | 1897.8
283.15 K, 150000 kPa | – | 1923.3
283.15 K, 160000 kPa | – | 1947.8
283.15 K, 170000 kPa | – | 1971.2
283.15 K, 180000 kPa | – | 1994.3
283.15 K, 190000 kPa | – | 2016.8
283.15 K, 200000 kPa | – | 2036.4
293.15 K, 101.3 kPa | 873.8 | –
293.15 K, 10000 kPa | 880 | –
293.15 K, 20000 kPa | 885.3 | –
293.15 K, 30000 kPa | 890.6 | –
293.15 K, 40000 kPa | 895.5 | –
293.15 K, 50000 kPa | 900.1 | –
293.15 K, 60000 kPa | 904.5 | –
293.15 K, 70000 kPa | 908.9 | –
293.15 K, 80000 kPa | 912.6 | –
293.15 K, 90000 kPa | 916.9 | –
293.15 K, 100000 kPa | 920.7 | –
303.15 K, 101.3 kPa | 866.3 | 1370.5
303.15 K, 10000 kPa | 872.8 | 1416.8
303.15 K, 20000 kPa | 878.4 | 1460
303.15 K, 30000 kPa | 883.9 | 1502
303.15 K, 40000 kPa | 888.9 | 1540.9
303.15 K, 50000 kPa | 893.7 | 1578.3
303.15 K, 60000 kPa | 898.3 | 1613.7
303.15 K, 70000 kPa | 902.7 | 1647
303.15 K, 80000 kPa | 906.9 | 1678.8
303.15 K, 90000 kPa | 910.9 | 1709.5
303.15 K, 100000 kPa | 915.4 | 1739.7
303.15 K, 110000 kPa | – | 1768.5
303.15 K, 120000 kPa | – | 1796.4
303.15 K, 130000 kPa | – | 1821.2
303.15 K, 140000 kPa | – | 1848.1
303.15 K, 150000 kPa | – | 1874.2
303.15 K, 160000 kPa | – | 1899
303.15 K, 170000 kPa | – | 1923.1
303.15 K, 180000 kPa | – | 1947
303.15 K, 190000 kPa | – | 1970.3
303.15 K, 200000 kPa | – | 1992.7
313.15 K, 101.3 kPa | 859.6 | –
313.15 K, 10000 kPa | 865.8 | –
313.15 K, 20000 kPa | 871.7 | –
313.15 K, 30000 kPa | 877.5 | –
313.15 K, 40000 kPa | 882.5 | –
313.15 K, 50000 kPa | 887.5 | –
313.15 K, 60000 kPa | 892.2 | –
313.15 K, 70000 kPa | 896.7 | –
313.15 K, 80000 kPa | 901.2 | –
313.15 K, 90000 kPa | 905.2 | –
313.15 K, 100000 kPa | 909.7 | –
323.15 K, 101.3 kPa | 852.4 | 1301.9
323.15 K, 10000 kPa | 858.9 | 1352.1
323.15 K, 20000 kPa | 865.1 | 1397.7
323.15 K, 30000 kPa | 870.9 | 1441.1
323.15 K, 40000 kPa | 876.1 | 1482.3
323.15 K, 50000 kPa | 881.1 | 1521.2
323.15 K, 60000 kPa | 886.2 | 1558.5
323.15 K, 70000 kPa | 891 | 1593.5
323.15 K, 80000 kPa | 895.5 | 1627.2
323.15 K, 90000 kPa | 899.7 | 1659.3
323.15 K, 100000 kPa | 904.1 | 1690.2
323.15 K, 110000 kPa | – | 1719.3
323.15 K, 120000 kPa | – | 1747.7
323.15 K, 130000 kPa | – | 1775.4
323.15 K, 140000 kPa | – | 1801.6
323.15 K, 150000 kPa | – | 1827.1
323.15 K, 160000 kPa | – | 1853
323.15 K, 170000 kPa | – | 1878.4
323.15 K, 180000 kPa | – | 1902.6
323.15 K, 190000 kPa | – | 1925.8
323.15 K, 200000 kPa | – | 1949.2
333.15 K, 101.3 kPa | 844.8 | –
333.15 K, 10000 kPa | 851.7 | –
333.15 K, 20000 kPa | 858.3 | –
333.15 K, 30000 kPa | 864.2 | –
333.15 K, 40000 kPa | 869.7 | –
333.15 K, 50000 kPa | 875 | –
333.15 K, 60000 kPa | 880.1 | –
333.15 K, 70000 kPa | 884.9 | –
333.15 K, 80000 kPa | 889.4 | –
333.15 K, 90000 kPa | 893.9 | –
333.15 K, 100000 kPa | 898.2 | –
343.15 K, 101.3 kPa | 837.8 | 1235.8
343.15 K, 10000 kPa | 845.2 | 1289
343.15 K, 20000 kPa | 851.9 | 1338.1
343.15 K, 30000 kPa | 858.1 | 1383.7
343.15 K, 40000 kPa | 864 | 1426
343.15 K, 50000 kPa | 869.5 | 1466.7
343.15 K, 60000 kPa | 874.6 | 1505.4
343.15 K, 70000 kPa | 879.5 | 1542.2
343.15 K, 80000 kPa | 884.4 | 1575.4
343.15 K, 90000 kPa | 889 | 1609.4
343.15 K, 100000 kPa | 893.4 | 1641.6
343.15 K, 110000 kPa | – | 1672.6
343.15 K, 120000 kPa | – | 1701.9
343.15 K, 130000 kPa | – | 1729.9
343.15 K, 140000 kPa | – | 1757.3
343.15 K, 150000 kPa | – | 1783.8
343.15 K, 160000 kPa | – | 1809.7
343.15 K, 170000 kPa | – | 1834.3
343.15 K, 180000 kPa | – | 1859.7
343.15 K, 190000 kPa | – | 1883.4
343.15 K, 200000 kPa | – | 1905.8
353.15 K, 101.3 kPa | 830.4 | –
353.15 K, 10000 kPa | 838 | –
353.15 K, 20000 kPa | 845.1 | –
353.15 K, 30000 kPa | 851.5 | –
353.15 K, 40000 kPa | 857.5 | –
353.15 K, 50000 kPa | 863.3 | –
353.15 K, 60000 kPa | 868.7 | –
353.15 K, 70000 kPa | 873.8 | –
353.15 K, 80000 kPa | 878.7 | –
353.15 K, 90000 kPa | 883.6 | –
353.15 K, 100000 kPa | 888.2 | –
363.15 K, 101.3 kPa | 823.2 | 1170.9
363.15 K, 10000 kPa | 831.3 | 1228.2
363.15 K, 20000 kPa | 838.7 | 1280.6
363.15 K, 30000 kPa | 845.5 | 1329.3
363.15 K, 40000 kPa | 851.8 | 1374
363.15 K, 50000 kPa | 857.7 | 1414.4
363.15 K, 60000 kPa | 863.1 | 1454.6
363.15 K, 70000 kPa | 868.4 | 1492.2
363.15 K, 80000 kPa | 873.3 | 1527.5
363.15 K, 90000 kPa | 878.1 | 1563.5
363.15 K, 100000 kPa | 882.9 | 1597.2
363.15 K, 110000 kPa | – | 1629.1
363.15 K, 120000 kPa | – | 1659.3
363.15 K, 130000 kPa | – | 1687.5
363.15 K, 140000 kPa | – | 1715.4
363.15 K, 150000 kPa | – | 1741.8
363.15 K, 160000 kPa | – | 1766.9
363.15 K, 170000 kPa | – | 1793.1
363.15 K, 180000 kPa | – | 1817.7
363.15 K, 190000 kPa | – | 1841.2
363.15 K, 200000 kPa | – | 1864.9
373.15 K, 101.3 kPa | 815.8 | –
373.15 K, 10000 kPa | 824.2 | –
373.15 K, 20000 kPa | 832 | –
373.15 K, 30000 kPa | 839.1 | –
373.15 K, 40000 kPa | 845.7 | –
373.15 K, 50000 kPa | 851.8 | –
373.15 K, 60000 kPa | 857.5 | –
373.15 K, 70000 kPa | 862.9 | –
373.15 K, 80000 kPa | 868.2 | –
373.15 K, 90000 kPa | 873 | –
373.15 K, 100000 kPa | 878.1 | –
383.15 K, 101.3 kPa | 808.4 | 1108.9
383.15 K, 10000 kPa | 817.4 | 1170.4
383.15 K, 20000 kPa | 825.5 | 1226.5
383.15 K, 30000 kPa | 832.7 | 1277.8
383.15 K, 40000 kPa | 839.5 | 1324.6
383.15 K, 50000 kPa | 845.9 | 1367.4
383.15 K, 60000 kPa | 851.8 | 1407.7
383.15 K, 70000 kPa | 857.5 | 1446.1
383.15 K, 80000 kPa | 862.8 | 1481.7
383.15 K, 90000 kPa | 867.9 | 1516.9
383.15 K, 100000 kPa | 873.2 | 1550.2
383.15 K, 110000 kPa | – | 1583.4
383.15 K, 120000 kPa | – | 1615.8
383.15 K, 130000 kPa | – | 1645.9
383.15 K, 140000 kPa | – | 1674.2
383.15 K, 150000 kPa | – | 1701.5
383.15 K, 160000 kPa | – | 1729.4
383.15 K, 170000 kPa | – | 1755.3
383.15 K, 180000 kPa | – | 1781.4
383.15 K, 190000 kPa | – | 1805.7
383.15 K, 200000 kPa | – | 1828.3
393.15 K, 101.3 kPa | 800.8 | 1078.5
393.15 K, 10000 kPa | 810.2 | 1142.4
393.15 K, 20000 kPa | 818.5 | 1200
393.15 K, 30000 kPa | 826.2 | 1252
393.15 K, 40000 kPa | 833.2 | 1299.9
393.15 K, 50000 kPa | 839.6 | 1343.8
393.15 K, 60000 kPa | 845.7 | 1384.5
393.15 K, 70000 kPa | 851.7 | 1423.6
393.15 K, 80000 kPa | 857.2 | 1460.2
393.15 K, 90000 kPa | 862.4 | 1495.7
393.15 K, 100000 kPa | 867.6 | 1529.7
393.15 K, 110000 kPa | – | 1562.8
393.15 K, 120000 kPa | – | 1593.9
393.15 K, 130000 kPa | – | 1624.5
393.15 K, 140000 kPa | – | 1654.6
393.15 K, 150000 kPa | – | 1683
393.15 K, 160000 kPa | – | 1710.3
393.15 K, 170000 kPa | – | 1736.2
393.15 K, 180000 kPa | – | 1761.2
393.15 K, 190000 kPa | – | 1785.3
393.15 K, 200000 kPa | – | 1809.7
